# Assay results from US20050130881A1, “Single amino acid based compounds for counteracting effects of reactive oxygen species and free radicals” (priority 2001, published 2005).
# Key:
# [1] = test system: SOD; test: In vivo upregulation of SOD in rat brain (Western immunoblot); set-up: species or system Sprague-Dawley rats; conditions: for Fold Upregulation of SOD: relative to vehicle
# Procedure: (§1) In vivo experiments were carried out in Sprague-Dawley rats (300-325 g) with solutions of L-aspartic acid. The animals were injected intravenously (iv) via the tail vein with L-aspartic acid. Each animal received one injection of L-aspartic acid in normal saline at total dose equivalent of 0.00, 0.75, 1.50, 3.00, and 6.00 mg L-aspartic acid/kg body weight or orally by gavage at a dose equivalent of 0.00 or 60.0 mg/kg body weight. The animals were sacrificed by decapitation at 6 hours post injection and dissected to isolate the brain organs, which were frozen at −70° C. for subsequent analysis by Western immunoblots.
# (§2) Each brain tissue was thawed and homogenized in a Down's homogenizer using ten volumes of homogenizer buffer (see, Adams et al., […], 77: 221-233 (2000); buffer as described in Adams et al., J. Leukoc. Biol., 62: 865-875 ([…])) to obtain a crude cytoplasmic fraction. The brain tissue homogenates were centrifuged (14,000×g for 5 minutes at 4° C.) to yield the supernatant purified cytoplasmic protein fractions for Western immunoblot analysis as described in Adams et al. (J. Cell. Biochem., 77: 221-233 (2000)). A 10 μg sample of each protein fraction was then separated by SDS polyacrylamide gel electrophoresis (SDS-PAGE) and analyzed for SOD and CAT content by Western blot assay as above.
# (§3) Control for measurement of unstimulated levels of SOD were obtained from vehicle-only (i.e., no L aspartic acid), injected or gavaged rats that were sacrificed at 6 hours post injection. […] Standard quantities of each cytoplasmic fraction (10 μg) were loaded on a lane of a gel for electrophoretic separation and Western immunoblot analysis (Adams et al., J. Cell. Biochem., 77: 221-233 (2000)). The stained gels were photographed and scanned by laser densitometry to quantify intensities in comparison to enzyme levels for control vehicle treated rats.
# (§4) The data are expressed as a fold increase relative to control animals that received vehicle only. Intravenous (i.v.) injections were administered as 0.3 ml in normal saline during five minutes. Oral doses were administered as a solution in 1 ml saline by gavage.
# [2] = test system: CAT; test: In vivo upregulation of CAT in rat brain (Western immunoblot); set-up: species or system Sprague-Dawley rats; conditions: for Fold Upregulation of CAT: relative to vehicle
# Procedure: as §1, §2, §3, §4
# [3] = test system: CAT; test: Upregulation of CAT in primary rat cortical cultures (Western immunoblot, laser densitometry); format: cell-based; conditions: for Upregulation (fold increase) CAT: 5 hours, relative to untreated control cultures
# Procedure: [The source words this procedure for another target and reports this target under the same test.] (§5) Primary rat cortical cultures were obtained by growing newborn rat brain cortical cells in Delbecco's modified Eagle medium supplemented with 100 units/ml of penicillin G, 100 μg/ml of streptomycin, and 10% fetal calf serum. The cells were isolated from the E-21 cortex of rat brain, plated at a density of 1×10^5 per ml and grown to confluence within four to five days in an atmosphere containing air and 5% CO2 at 37° C. as described in Cornell-Bell et al., Science, 247: 470-473 (1990) and Cell Calcium, 12: 185-204 (1991). Cultures were grown in 20 ml flasks as a monolayer and then exposed to various concentrations of L-aspartic acid for studies of the effect on upregulation of the gene for SOD. Cultures of the rat brain cortical cells were incubated with 0.00, 0.01, 0.13, 1.30, and 13.30 μg/ml L-aspartic acid for durations of 5 hours. Control cultures were treated in the same manner, but were not incubated with L-aspartic acid.
# (§6) Cytoplasmic proteins were isolated according to published methods (Adams et al., J. Leukoc. Biol., 62: 865-873 (1997)). The cell cultures were washed once in phosphate buffer saline (PBS) containing 20 mM EDTA and then suspended in 250 μl of freshly prepared lysis buffer (20 mM Hepes, pH 7.9, 10 mM KCl, 300 mM NaCl, 1 mM MgCl2, 0.1% Triton X-100 nonionic detergent, 20% glycerol, 0.5 mM dithiothreitol (DTT), freshly supplemented with inhibitors as described in Adams et al., […]., 77: 221-233 (2000)). The suspensions were then incubated for at least 10 minutes on ice to lyse cells and then centrifuged (14,000×g for 5 minutes at 4° C.) to pellet cell debris. The supernatant cytoplasmic fractions were removed and stored as aliquots at −80° C. for analysis.
# (§7) The cytoplasmic proteins were separated by SDS-PAGE using 5 μg/lane on the gels for analysis by Western immunoblots. […] SOD expression was detected in the Western blots using anti-SOD rabbit polyclonal antibody (Rockland, Inc., Gilbertville, Pa.). The Western blots were also analyzed by laser densitometry to quantify SOD protein upregulation. The control in these experiments was an identical culture flask, which was treated only with vehicle (i.e., buffer, no L-aspartic acid).
# [4] = test system: Sprague-Dawley rats; test: In vivo observations of toxicity and behaviour after dosing; conditions: 60 mg/Kg oral, rat
# Procedure: as §1
# At 6 mg/Kg, upregulation of CAT became higher than SOD. The compound is also active orally, but in that case, a dose of 60 mg/Kg must be used in the rat to see an effect.
# [5] = test system: SOD; test: Upregulation of SOD in primary rat cortical cultures (Western immunoblot, laser densitometry); format: cell-based; conditions: for Upregulation (fold increase) SOD: 5 hours, relative to untreated control cultures
# Procedure: as §5, §6, §7
# [6] = test system: primary rat cortical cultures; test: Tissue culture properties of primary rat cortical cultures; format: cell-based; conditions: low doses of up to 10 ng/ml in culture
# [7] = 0.75 mg/kg i.v., rat brain, 6 hours post injection
# [8] = 1.50 mg/kg i.v., rat brain, 6 hours post injection
# [9] = 3.00 mg/kg i.v., rat brain, 6 hours post injection
# [10] = 6.00 mg/kg i.v., rat brain, 6 hours post injection
# [11] = 60.00 mg/kg oral (gavage), rat brain, 6 hours
structure (smiles),measurement,setting,value
"N[C@@H](CC(=O)O)C(=O)O [Aspartic Acid, L-aspartic acid]",Fold Upregulation of SOD,[1]; [7],1.0 fold
same,Fold Upregulation of SOD,[1]; [8],1.0 fold
same,Fold Upregulation of SOD,[1]; [9],1.3 fold
same,Fold Upregulation of SOD,[1]; [10],1.3 fold
same,Fold Upregulation of SOD,[1]; [11],2.9 fold
same,i.v. dose that must be injected before upregulation of SOD is observed,"[1]; i.v., rat brain",3 mg/kg
same,oral dose that must be used to see an effect (SOD upregulation),"[1]; oral, rat",60 mg/kg
same,Fold Upregulation of CAT,[2]; [7],1.0 fold
same,Fold Upregulation of CAT,[2]; [8],1.0 fold
same,Fold Upregulation of CAT,[2]; [9],1.2 fold
same,Fold Upregulation of CAT,[2]; [10],2.5 fold
same,Fold Upregulation of CAT,[2]; [11],3.5 fold
same,i.v. dose that must be injected before upregulation of CAT is observed,"[2]; i.v., rat brain",3 mg/kg
same,oral dose that must be used to see an effect (CAT upregulation),"[2]; oral, rat",60 mg/kg
same,Upregulation (fold increase) CAT,[3]; 0.01 μg/ml,1.0 fold increase
same,Upregulation (fold increase) CAT,[3]; 0.13 μg/ml,1.0 fold increase
same,CAT upregulation,[3]; 1.3 μg/ml,upregulated
same,Upregulation (fold increase) CAT,[3]; 1.30 μg/ml,2.3 fold increase
same,Upregulation (fold increase) CAT,[3]; 13.30 μg/ml,3.7 fold increase
same,toxic effect,[4],no toxic effect
same,Upregulation (fold increase) SOD,[5]; 0.01 μg/ml,1.0 fold increase
same,SOD upregulation,[5]; 130 ng/ml,upregulation of SOD
same,Upregulation (fold increase) SOD,[5]; 0.13 μg/ml,1.6 fold increase
same,SOD upregulation,[5]; 1.3 μg/ml,upregulated
same,Upregulation (fold increase) SOD,[5]; 1.30 μg/ml,2.1 fold increase
same,SOD increase by Western blot,[5]; 13.3 μg/ml,substantial increase
same,Upregulation (fold increase) SOD,[5]; 13.30 μg/ml,3.5 fold increase
same,effect on SOD upregulation,[5]; low doses of up to 10 ng/ml in culture,no effect
same,effect on any aspects of tissue culture properties,[6],no effect
